Assay results reported in ChEMBL document CHEMBL5104193, “Hypoxia-Activated Prodrugs with Dual COX-2/CA Inhibitory Effects on Attenuating Cardiac Inflammation under Hypoxia” (J Med Chem, 2022).
Activity calls are given as the source filed them. No cut-off for these calls is given here.

Experiments:
H9c2 [1] = assay: Protection against LPS/hypoxia induced cell injury in rat H9c2 cells assessed as recovery of cell viability at 10 uM by CCK-8 assay; assay type: functional, cell-based
H9c2 [2] = assay: Reversal of LPS/hypoxia induced mitochondrial membrane potential loss in rat H9c2 cells in presence of 2-(4-(5-oxo-5-((5-sulfamoyl-1,3,4-thiadiazol-2-yl)amino)pentyl)-1H-1,2,3-triazol-1-yl)acetic acid by JC-1 dye based flow cytometry analysis; assay type: functional, cell-based
H9c2 [3] = assay: Protection against LPS/hypoxia induced apoptosis in rat H9c2 cells assessed as reduction in green fluorescence in presence of 2-(4-(5-oxo-5-((5-sulfamoyl-1,3,4-thiadiazol-2-yl)amino)pentyl)-1H-1,2,3-triazol-1-yl)acetic acid by confocal microscopy analysis; assay type: functional, cell-based
H9c2 [4] = assay: Anti-inflammatory activity in LPS/hypoxia induced rat H9c2 cells assessed as reduction of IL-1 beta protein expression at 10 uM by Western blot analysis; assay type: functional, cell-based
H9c2 [5] = assay: Anti-inflammatory activity in LPS/hypoxia induced rat H9c2 cells assessed as reduction of IL-6 protein expression at 10 uM in presence of 2-(4-(5-oxo-5-((5-sulfamoyl-1,3,4-thiadiazol-2-yl)amino)pentyl)-1H-1,2,3-triazol-1-yl)acetic acid by Western blot analysis; assay type: functional, cell-based
H9c2 [6] = assay: Reversal of ATP level in LPS/hypoxia induced rat H9c2 cell in presence of 2-(4-(5-oxo-5-((5-sulfamoyl-1,3,4-thiadiazol-2-yl)amino)pentyl)-1H-1,2,3-triazol-1-yl)acetic acid and Na2WO4 by multimode plate reader analysis; assay type: functional, cell-based
H9c2 [7] = assay: Protection against LPS/hypoxia induced apoptosis in rat H9c2 cells assessed as reduction in necrotic cells at 10 umol/L incubated for 4 hrs under hypoxia condition by AnnexinV-FITC/propidium iodide staining based flow cytometry analysis (reference value: 31.02%); assay type: functional; set-up: scale not given: the % may be the effect or the level left; settings: dose 10 µmol/L, at 10 µM
H9c2 [8] = assay: Protection against LPS/hypoxia induced apoptosis in rat H9c2 cells assessed as reduction in red fluorescence by confocal microscopy analysis; assay type: functional, cell-based
[9] = Toxicity in Wistar rat assessed as change in CRE level in presence of 2-(4-(5-oxo-5-((5-sulfamoyl-1,3,4-thiadiazol-2-yl)amino)pentyl)-1H-1,2,3-triazol-1-yl)acetic acid; settings: in vivo
H9c2 [10] = assay: Anti-inflammatory activity in LPS/hypoxia induced rat H9c2 cells assessed as reduction of TNF-alpha protein expression at 10 uM by Western blot analysis; assay type: functional, cell-based
Rattus norvegicus [11] = assay: (§1) Antiinflammatory activity against LPS/talc powder induced pericarditic Wistar rat assessed as reduction in heart swelling at 20 mg/kg, ip pretreated for 2 hrs followed by LPS/tal powder stimulation measured after 48 hrs in presence of 2-(4-(5-oxo-5-((5-sulfamoyl-1,3,4-thiadiazol-2-yl)amino)pentyl)-1H-1,2,3-triazol-1-yl)acetic acid; assay type: functional, organism-based; settings: time 50.0 hrs
[12] = Toxicity in Wistar rat assessed as change in ALT level in presence of 2-(4-(5-oxo-5-((5-sulfamoyl-1,3,4-thiadiazol-2-yl)amino)pentyl)-1H-1,2,3-triazol-1-yl)acetic acid; settings: in vivo
Rattus norvegicus [13] = assay: as §1, with “in” for “against”, “increase” for “reduction”, “cTNI level in serum” for “heart swelling”, “acid (reference value: 0.167+/-0.025 ng/ml)” for “acid”; assay type: functional; settings: time 50 hrs
[14] = Stability of the compound assessed as NTR (unknown origin) mediated hydrolysis by measuring half life by UV spectrophotometry; assay type: ADME; settings: human
H9c2 [15] = assay: Anti-inflammatory activity in rat H9c2 cells assessed as downregulation of cytochrome C expression at 10 uM in presence of 2-(4-(5-oxo-5-((5-sulfamoyl-1,3,4-thiadiazol-2-yl)amino)pentyl)-1H-1,2,3-triazol-1-yl)acetic acid by Western blot analysis; assay type: functional, cell-based
H9c2 [16] = assay: Protection against LPS/hypoxia induced cell injury in CA9 knockdown rat H9c2 cells assessed as recovery of cell viability at 10 uM by CCK-8 assay; assay type: functional, cell-based
H9c2 [17] = assay: Antiinflammatory activity in LPS/hypoxia induced CA9 knockdown rat H9c2 cells assessed as decrease in IL-6 protein level at 10 uM by Western blot analysis; assay type: functional, cell-based
H9c2 [18] = assay: Inhibition of intracellular ROS level in LPS/hypoxia induced rat H9c2 cells in presence of 2-(4-(5-oxo-5-((5-sulfamoyl-1,3,4-thiadiazol-2-yl)amino)pentyl)-1H-1,2,3-triazol-1-yl)acetic acid by DCFH-DA probe based fluorescence confocal microscopy analysis; assay type: functional, cell-based
H9c2 [19] = assay: Anti-inflammatory activity in LPS/hypoxia induced rat H9c2 cells assessed as reduction of IL-1beta protein expression at 10 uM in presence of 2-(4-(5-oxo-5-((5-sulfamoyl-1,3,4-thiadiazol-2-yl)amino)pentyl)-1H-1,2,3-triazol-1-yl)acetic acid by Western blot analysis; assay type: functional, cell-based
H9c2 [20] = assay: Protection against LPS/hypoxia induced apoptosis in rat H9c2 cells assessed as reduction in red fluorescence in presence of 2-(4-(5-oxo-5-((5-sulfamoyl-1,3,4-thiadiazol-2-yl)amino)pentyl)-1H-1,2,3-triazol-1-yl)acetic acid by confocal microscopy analysis; assay type: functional, cell-based
Rattus norvegicus [21] = assay: as §1, with “torsion T wave inversion” for “heart swelling”, “acid by ECG analysis” for “acid”; assay type: functional, organism-based; settings: T-cell, time 50.0 hrs
Rattus norvegicus [22] = assay: as §1, with “in” for “against”, “rat model” for “rat”, “increase” for “reduction”, “CK-MB level in serum” for “heart swelling”, “acid (reference value: 4140+/-256.23 U/L)” for “acid”; assay type: functional; settings: time 50 hrs
Rattus norvegicus [23] = assay: as §1, with “U wave flattening” for “heart swelling”, “acid by ECG analysis” for “acid”; assay type: functional, organism-based; settings: time 50.0 hrs
H9c2 [24] = assay: Reversal of ATP level in LPS/hypoxia induced rat H9c2 cells in presence of 2-(4-(5-oxo-5-((5-sulfamoyl-1,3,4-thiadiazol-2-yl)amino)pentyl)-1H-1,2,3-triazol-1-yl)acetic acid by multimode plate reader analysis (reference value: 21.37 nmol/mg); assay type: functional
[25] = Toxicity in Wistar rat assessed as change in BUN level in presence of 2-(4-(5-oxo-5-((5-sulfamoyl-1,3,4-thiadiazol-2-yl)amino)pentyl)-1H-1,2,3-triazol-1-yl)acetic acid; settings: in vivo
H9c2 [26] = assay: Anti-inflammatory activity in LPS/hypoxia induced rat H9c2 cells assessed as reduction of TNF-alpha protein expression at 10 uM in presence of 2-(4-(5-oxo-5-((5-sulfamoyl-1,3,4-thiadiazol-2-yl)amino)pentyl)-1H-1,2,3-triazol-1-yl)acetic acid by Western blot analysis; assay type: functional, cell-based
H9c2 [27] = assay: Protection against LPS/ hypoxia induced cell injury in rat H9c2 cells assessed as recovery of cell viability at 1 to 10 uM by CCK-8 assay; assay type: functional, cell-based; settings: dose 1-10 µM
H9c2 [28] = assay: Reversal of LPS/hypoxia induced mitochondrial membrane potential loss in rat H9c2 cells assessed as increase in JC-1 polymer morphology in presence of 2-(4-(5-oxo-5-((5-sulfamoyl-1,3,4-thiadiazol-2-yl)amino)pentyl)-1H-1,2,3-triazol-1-yl)acetic acid by JC-1 dye based flow cytometry analysis; assay type: functional, cell-based; settings: time 20.0 min
H9c2 [29] = assay: Antiinflammatory activity in LPS/hypoxia induced CA9 knockdown rat H9c2 cells assessed as decrease in IL-1 beta protein level at 10 uM by Western blot analysis; assay type: functional, cell-based

## COc1ccc2c(c1)c(CC(=O)O)c(C)n2C(=O)c1ccc(Cl)cc1 [INDOMETHACIN]
H9c2 [1]
  Activity: Active
H9c2 [2]
  Activity: Active
H9c2 [3]
  Activity: Active
H9c2 [4]
  Activity: Active
H9c2 [5]
  Activity: Active
H9c2 [6]
  Activity: Active
H9c2 [7]
  Activity: 23.96%
H9c2 [8]
  Activity: Active
[9]
  Activity: Toxic
H9c2 [10]
  Activity: Active
Rattus norvegicus [11]
  Activity: Active
[12]
  Activity: Toxic
Rattus norvegicus [13]
  Activity: 0.121 ng/mL
[14]
  t1/2: 21.6 min
H9c2 [15]
  Activity: Active
H9c2 [16]
  Activity: Active
H9c2 [17]
  Activity: Active
H9c2 [18]
  inhibition: Active
H9c2 [19]
  Activity: Active
H9c2 [20]
  Activity: Active
Rattus norvegicus [21]
  Activity: Active
Rattus norvegicus [22]
  Activity: 2620 U/L
Rattus norvegicus [23]
  Activity: Active
H9c2 [24]
  Activity: 47.52 nmol/mg
[25]
  Activity: Toxic
H9c2 [26]
  Activity: Active
H9c2 [27]
  Activity: Active
H9c2 [28]
  Activity: Active
H9c2 [29]
  Activity: Active
